According to PubChem BioAssay (NCI):
Several values for one entry are separate records, joined by “and”; a condition that tells them apart may be missing. Identical values can stand only once.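 Five compound concentrations were applied to cells in 96-well plates for 48 hours; endpoints were derived by simple linear interpolation of the resulting dose-response curve. Here, GI50 denotes the concentration required for 50% inhibition of growth. TGI: concentration producing complete growth inhibition.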

Assays:
Assay in all cases: inhibition of tumour cell growth, NCI panel, 48 h
HCC-2998 colon = system: HCC-2998 colon
HS 578T breast = system: HS 578T breast
M14 melanoma = system: M14 melanoma
MALME-3M melanoma = system: MALME-3M melanoma
SK-MEL-5 melanoma = system: SK-MEL-5 melanoma
SK-OV-3 ovarian = system: SK-OV-3 ovarian
SNB-19 CNS = system: SNB-19 CNS
SNB-75 CNS = system: SNB-75 CNS
UO-31 renal = system: UO-31 renal
HCT-116 colon = system: HCT-116 colon

Row | Structure (SMILES) | GI50 (HCC-2998 colon) [µM] | TGI (HCC-2998 colon) | GI50 (HS 578T breast) [µM] | TGI (HS 578T breast) [µM] | GI50 (M14 melanoma) [µM] | TGI (M14 melanoma) | GI50 (MALME-3M melanoma) [µM] | TGI (MALME-3M melanoma) | GI50 (SK-MEL-5 melanoma) [µM] | TGI (SK-MEL-5 melanoma) | GI50 (SK-OV-3 ovarian) [µM] | TGI (SK-OV-3 ovarian) [µM] | GI50 (SNB-19 CNS) [µM] | TGI (SNB-19 CNS) [µM] | GI50 (SNB-75 CNS) [µM] | TGI (SNB-75 CNS) | GI50 (UO-31 renal) [µM] | TGI (UO-31 renal) [µM] | TGI (HCT-116 colon) | GI50 (HCT-116 colon) [µM]
1 | O=C(NO)c1ccc(CNc2cccc3nc(C4CC4)n(-c4ccccc4)c(=O)c23)cc1 | 1.81 | 3.44 µM | 2.5 | 20.6 | 1.91 | 4.14 µM | 2.05 | 7.61 µM | 2.15 | 4.8 µM | 2.15 | 5.4 | 2.61 | 9.68 | 1.78 | 5.93 µM | 1.45 | 2.96 |  | 
2 | N#Cc1c(CC(=O)O)cc(=O)n2c1[nH]c1ccccc12 |  | > 100 µM |  |  |  | > 100 µM |  | > 100 µM |  | > 100 µM |  | > 100 |  | > 100 |  | > 100 µM |  | > 100 | > 100 µM | 
3 | COc1cc2c(cc1OCCN1CCN(CCN3C(=O)c4cccc5cccc(c45)C3=O)CC1)N=C[C@@H]1CCCN1C2=O |  |  | 24.9 | 54.4 | 14.5 | 28.7 µM |  |  | 16 | 29.5 µM | 27.8 | 46.5 | 29.9 | 53.7 | 20.4 | 37.5 µM | 18.5 | 32.5 |  | 
4 | CCC12C=C(C(=O)OC)N3c4ccccc4C4CCN(CCC1)C2C43 (stereo not given) |  | > 100 µM |  |  |  | > 100 µM |  | 70.4 µM |  | > 100 µM |  | > 100 |  | > 100 |  | > 100 µM |  | > 100 | > 100 µM | 
5 | CNS(=O)(=O)NNS(=O)(=O)c1ccc(C)cc1 |  | > 100 µM |  |  |  | > 100 µM |  | > 100 µM |  | > 100 µM |  | > 100 |  | > 100 |  |  |  | > 100 | > 100 µM | 
6 | CCCCCNC(=O)CCCCCCCCCCCNC(=O)CCCCCCCCCCN1C=CC(=CC=C2C=CC(=O)C=C2)C=C1 |  | > 100 µM |  |  |  | > 100 µM |  | > 100 µM |  | > 100 µM |  | > 100 |  | > 100 |  | 68.3 µM |  | > 100 | > 100 µM | 
7 | O=C1c2ccccc2C2(O)N(c3ccccc3)C(=S)N(c3ccccc3)C12O (stereo not given) |  | > 100 µM |  |  |  | > 100 µM |  | > 100 µM |  | > 100 µM |  | > 100 |  | > 100 |  | > 100 µM |  | > 100 | > 100 µM | 
8 | O=C1c2ccccc2-c2c1c1c(O)cccc1n2Cc1ccccc1 | 12.7 | 39.1 µM | 10.3 | 32.8 | 26.7 | > 100 µM | 2.76 | 8.65 µM | 5.62 | 24.7 µM | 14.5 | 41.7 | 14.4 | 82.5 |  |  | 21.8 | > 100 | > 100 µM | 11.8
9 | CC(=O)NC(CCCNC(=O)OCc1ccccc1)C(=O)NCc1ccccc1 (stereo not given) |  | > 100 µM |  |  |  | > 100 µM |  | > 100 µM |  | > 100 µM |  | > 100 |  | > 100 |  | > 100 µM |  | > 100 | > 100 µM | 
10 | ON1CCc2c([nH]c3ccccc23)C1c1ccc(Cl)cc1 (stereo not given) |  | 72.3 µM |  |  |  | > 100 µM |  | 77.6 µM |  |  |  | > 100 |  | > 100 |  | > 100 µM |  | 91.7 | 15.4 µM | 
11 | O=S(=O)(Nc1ccccc1)c1ccc(C2CC3(Cl)C(Cl)=C(Cl)C2(Cl)C3(Cl)Cl)cc1 (stereo not given) | 1.81 | 3.46 µM |  |  | 2.19 | 4.61 µM | 2.53 | 7.11 µM | 1.93 | 3.74 µM | 3.45 | 10.1 | 3.74 | 13.6 | 2.61 | 9.09 µM | 2.09 | 6.72 | 3.44 µM | 1.81
12 | Nc1ccccc1C(=O)/C=C/c1ccccc1O |  | > 100 µM |  |  |  | > 100 µM |  | > 100 µM |  | > 100 µM |  | > 100 |  | > 100 |  | 68.9 µM |  | > 100 | > 100 µM | 
13 | CC(C)(C)C1CCC(O)(c2ccccc2)CC1 (stereo not given) |  | > 100 µM and 60 µM |  |  |  | > 100 µM and 42.8 µM |  | > 100 µM and 63.2 µM |  | > 100 µM and 28.5 µM |  | > 100 |  | > 100 |  | > 100 µM and 60 µM |  | > 100 | > 100 µM and 47.9 µM | 
14 | CN1S(=O)(=O)N(C)P12(N=P(CP(=NP13(N(C)S(=O)(=O)N1C)N(C)S(=O)(=O)N3C)(c1ccccc1)c1ccccc1)(c1ccccc1)c1ccccc1)N(C)S(=O)(=O)N2C |  | > 100 µM |  |  |  | > 100 µM |  | > 100 µM |  | > 100 µM |  | > 100 |  | > 100 |  | > 100 µM |  | > 100 | > 100 µM | 
15 | CCN1CCN(CC(=O)Nc2nc3ccc(NCc4ccc(Br)cc4)cc3s2)CC1 |  |  | 1.77 | 4.81 | 1.72 | 3.63 µM | 1.66 | 3.19 µM | 1.68 | 3.08 µM |  |  | 2.6 | 6.93 | 1.59 | 3.29 µM | 1.78 | 3.4 | 3.3 µM | 1.54
16 | O=C1NC(=O)N(S(=O)(=O)c2cc(C(=O)Nc3ccc(Cl)cc3)c(Cl)cc2S)S(=O)(=O)N1 | 12.9 | 30 µM | 21.1 | 55.4 | 16.2 | 31.6 µM |  |  | 13.1 | 28.5 µM |  |  |  |  | 38.9 | > 100 µM | 19.6 | 46.5 | 35.4 µM | 19.4
17 | CCOC(=O)C1(C)CCC(C(=O)OC)C1=O (stereo not given) |  | > 100 µM |  |  |  | > 100 µM |  | > 100 µM |  | > 100 µM |  | > 100 |  | > 100 |  | > 100 µM |  | > 100 | > 100 µM | 
18 | O=C1Nc2ccc(Cl)cc2/C1=N/c1nc(-c2ccc(Cl)cc2)cs1 |  |  |  |  | 1.4 | 2.82 µM |  |  |  |  | 1.5 | 4.54 |  |  |  |  |  |  | 2.71 µM | 1.3
19 | O=c1c2cc(Br)ccc2nc(CNc2ccccc2)n1-c1ccccc1 |  | 33.7 µM |  |  |  | 47.6 µM |  | 28.4 µM |  | 38.1 µM |  | > 96.4 |  | > 72.1 |  | > 59.5 µM |  | > 57.8 | 33.9 µM | 
